Experimental data reported in patent US20160296499A1, “Spiroindoline Antiparasitic Derivatives” (ZOETIS SERVICES LLC, priority 2013, published 2016).
Like-named read-outs stand apart in the source and are kept apart here.

Tests used:
[1] = tested on: Dirofilaria immitis microfilariae; experiment: Dirofilaria immitis, Microfilariae (DiMF) In Vitro Assay
[2] = target: T1, bovine vesicular acetylcholine transporter (VAChT) (Bos taurus, UniProt E1BK36); experiment: Radioligand Binding Assay; details: Bovine binding Ki, CHO-K1 membranes with recombinant bovine VAChT, [3H]Compound X6 0.3 nM
T1 sequence (E1BK36 1-524): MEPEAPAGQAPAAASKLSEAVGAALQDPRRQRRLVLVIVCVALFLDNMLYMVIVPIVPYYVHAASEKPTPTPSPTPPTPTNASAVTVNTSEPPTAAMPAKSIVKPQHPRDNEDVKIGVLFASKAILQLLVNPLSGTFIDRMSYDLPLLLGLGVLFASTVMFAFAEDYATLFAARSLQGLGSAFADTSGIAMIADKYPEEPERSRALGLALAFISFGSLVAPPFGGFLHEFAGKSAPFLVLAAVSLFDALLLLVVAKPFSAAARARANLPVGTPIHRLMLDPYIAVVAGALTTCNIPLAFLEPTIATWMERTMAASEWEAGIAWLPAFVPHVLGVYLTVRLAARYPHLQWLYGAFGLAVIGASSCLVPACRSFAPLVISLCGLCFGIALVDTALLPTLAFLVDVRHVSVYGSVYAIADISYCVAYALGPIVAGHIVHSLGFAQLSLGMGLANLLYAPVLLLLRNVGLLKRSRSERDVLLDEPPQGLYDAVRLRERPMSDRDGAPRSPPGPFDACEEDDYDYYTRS
Protocol: To measure binding affinity, CHO-K1 cells recombinantly expressing the bovine VAChT was generated as a stable cell line and subsequently used to produce membrane preparations.
Radioligand binding assays were conducted in disposable polypropylene 96-well plates. VAChT competition assays were initiated by the addition of bovine recombinant membrane homogenate (50 μg/well) in assay buffer (50 mM Tris-HCl, 120 mM NaCl, 5 mM KCl, 1 mM MgCl, and 2 mM CaCl, pH 7.4) containing [^3H]Compound X6 (0.3 nM) with or without competing ligand. The assay was allowed to equilibrate for 120 minutes at room temperature, before being filtered onto GF/C unifilter plates pre-coated in 0.3% polyethylenimine (Perkin Elmer Life and Analytical Sciences, Boston, Mass.) with a Filtermate 96 harvester (PerkinElmer Life and Analytical Sciences). Filters were washed in ice-cold 50 mM Tris-HCl, pH 7.4 buffer and then counted for radioactivity in a TopCount microplate scintillation counter after addition of 50 μL Microscint 20 (PerkinElmer). Non-specific binding was measured in the presence of 10 μM Compound X6. Apparent dissociation constants (Ki values) from the competition experiments were calculated using an iterative nonlinear regression curve-fitting program (GraphPAD Prism 6.0 Software, San Diego, Calif.) and are reported in Table 2.

Haemonchus contortus L3 = experiment: Haemonchus contortus, Larvae Stage 3 (HcL3) In Vitro Assay
[3] = Dirofilaria immitis, 72 h, read-out: Di MF, MEC, decrease in microfilariae motility by visual assessment, curve starting at 100 μM
[4] = Haemonchus contortus, 96 h, read-out: HcL3 MEC, Minimal Effective Concentration whereby worm motility is inhibited by approximately 70%, 37° C., tested 0.001-100 μM
[5] = Dirofilaria immitis, 72 hours, read-out: Di MF
[6] = Haemonchus contortus, 96 hours, 37° C., read-out: HcL3 MEC

Compound	minimal effective concentration [1, 3] [µM]	Ki [2] [nM]	minimal effective concentration (Haemonchus contortus L3; [4]) [µM]	minimal effective concentration [1, 5] [µM]	minimal effective concentration (Haemonchus contortus L3; [6]) [µM]	minimal effective concentration ([1]; MEC, decrease in microfilariae motility by visual assessment, 72 hours, curve starting at 100 μM, read-out: Di MF) [µM]	minimal effective concentration (Haemonchus contortus L3; Minimal Effective Concentration whereby worm motility is inhibited by approximately 70%, 96 hours, 37° C., tested 0.001-100 μM, read-out: HcL3 MEC) [µM]
O=C(NCc1ccnc(Cl)c1)N1CC2(CCN(C/C=C/c3ccc(OC(F)(F)F)cc3)CC2)c2cc(C(F)(F)F)ccc21 [Example 172, (E)-N-((2-chloropyridin-4-yl)methyl)-1′-(3-(4-(trifluoromethoxy)phenyl)allyl)-5-(trifluoromethyl)spiro[indoline-3,4′-piperidine]-1-carboxamide]	5.7	921	100				
O=C(NCc1ccnc(Cl)c1)N1CC2(CCN(C/C=C/c3ccc(Cl)cc3)CC2)c2c1ccc(F)c2C(F)(F)F [Example 173, (E)-1′-(3-(4-chlorophenyl)allyl)-N-((2-chloropyridin-4-yl)methyl)-5-fluoro-4-(trifluoromethyl)spiro[indoline-3,4′-piperidine]-1-carboxamide]	5.7	465	100				
O=C(NCc1ccnc(Cl)c1)N1CC2(CCN(C/C=C/c3ccc(F)cc3)CC2)c2c(OC(F)(F)F)cccc21 [Example 174, (E)-N-((2-chloropyridin-4-yl)methyl)-1′-(3-(4-fluorophenyl)allyl)-4-(trifluoromethoxy)spiro[indoline-3,4′-piperidine]-1-carboxamide]	4.4	1500	100				
O=C(NCc1ccnc(C(F)(F)F)c1)N1CC2(CCN(C/C=C/c3ccc(F)cc3)CC2)c2cc(OC(F)(F)F)ccc21 [Example 175, (E)-1′-(3-(4-fluorophenyl)allyl)-5-(trifluoromethoxy)-N-((2-(trifluoromethyl)pyridin-4-yl)methyl)spiro[indoline-3,4′-piperidine]-1-carboxamide]	3.3	452	24.5				
N#Cc1ccc(/C=C/CN2CCC3(CC2)CN(C(=O)NCc2ccnc(C(F)(F)F)c2)c2ccc(OC(F)(F)F)cc23)cc1 [Example 176, (E)-1′-(3-(4-cyanophenyl)allyl)-5-(trifluoromethoxy)-N-((2-(trifluoromethyl)pyridin-4-yl)methyl)spiro[indoline-3,4′-piperidine]-1-carboxamide]	3.3	288	33				
O=C(NCc1ccnc(C(F)(F)F)c1)N1CC2(CCN(C/C=C/c3ccc(C(F)(F)F)cc3)CC2)c2cc(OC(F)(F)F)ccc21 [Example 177, (E)-5-(trifluoromethoxy)-1′-(3-(4-(trifluoromethyl)phenyl)allyl)-N-((2-(trifluoromethyl)pyridin-4-yl)methyl)spiro[indoline-3,4′-piperidine]-1-carboxamide]	3.3	1670	100				
O=C(NCc1ccnc(C(F)(F)F)c1)N1CC2(CCN(C/C=C/c3ccc(OC(F)(F)F)cc3)CC2)c2cc(OC(F)(F)F)ccc21 [Example 178, (E)-5-(trifluoromethoxy)-1′-(3-(4-(trifluoromethoxy)phenyl)allyl)-N-((2-(trifluoromethyl)pyridin-4-yl)methyl)spiro[indoline-3,4′-piperidine]-1-carboxamide]	3.3	760	100				
O=C(NCc1ccnc(C(F)(F)F)c1)N1CC2(CCN(C/C=C/c3ccc(Cl)cc3)CC2)c2cc(OC(F)(F)F)ccc21 [Example 179, (E)-1′-(3-(4-chlorophenyl)allyl)-5-(trifluoromethoxy)-N-((2-(trifluoromethyl)pyridin-4-yl)methyl)spiro[indoline-3,4′-piperidine]-1-carboxamide]		371		3.3	7.6		
O=C(NCc1ccnc(Cl)c1)N1CC2(CCN(C/C=C/c3ccc(OC(F)(F)F)cc3)CC2)c2cc(OC(F)(F)F)ccc21 [Example 180, (E)-N-((2-chloropyridin-4-yl)methyl)-5-(trifluoromethoxy)-1′-(3-(4-(trifluoromethoxy)phenyl)allyl)spiro[indoline-3,4′-piperidine]-1-carboxamide]	10	437	10				
O=C(NCc1ccnc(Cl)c1)N1CC2(CCN(C/C=C/c3ccc(C(F)(F)F)cc3)CC2)c2cc(OC(F)(F)F)ccc21 [Example 181, (E)-N-((2-chloropyridin-4-yl)methyl)-5-(trifluoromethoxy)-1′-(3-(4-(trifluoromethyl)phenyl)allyl)spiro[indoline-3,4′-piperidine]-1-carboxamide]	10	816	100				
O=C(NCc1ccnc(Cl)c1)N1CC2(CCN(C/C=C/c3ccc(C(F)(F)F)cn3)CC2)c2cc(OC(F)(F)F)ccc21 [Example 182, (E)-N-((2-chloropyridin-4-yl)methyl)-5-(trifluoromethoxy)-1′-(3-(5-(trifluoromethyl)pyridin-2-yl)allyl)spiro[indoline-3,4′-piperidine]-1-carboxamide]	10	1470	10				
COc1cc(CNC(=O)N2CC3(CCN(C/C=C/c4ccc(C(F)(F)F)cc4)CC3)c3cc(Cl)ccc32)ccn1 [Example 183, (E)-5-chloro-N-((2-methoxypyridin-4-yl)methyl)-1′-(3-(4-(trifluoromethyl)phenyl)allyl)spiro[indoline-3,4′-piperidine]-1-carboxamide]	3.3	184	10				
O=C(NCc1ccnc(F)c1)N1CC2(CCN(C/C=C/c3ccc(C(F)(F)F)cc3)CC2)c2cc(Cl)ccc21 [Example 184, (E)-5-chloro-N-((2-fluoropyridin-4-yl)methyl)-1′-(3-(4-(trifluoromethyl)phenyl)allyl)spiro[indoline-3,4′-piperidine]-1-carboxamide]	3.3	224	3.3				
O=C(NCc1ccnc(Cl)c1)N1CC2(CCN(C/C=C/c3ccc(Cl)cc3)CC2)c2cc(OC(F)(F)F)ccc21 [Example 185, (E)-1′-(3-(4-chlorophenyl)allyl)-N-((2-chloropyridin-4-yl)methyl)-5-(trifluoromethoxy)spiro[indoline-3,4′-piperidine]-1-carboxamide]		283				10.0	3.3
Cc1noc(C)c1-c1ccc2c(c1)C1(CCN(C/C=C/c3ccc(Cl)cc3)CC1)CN2C(=O)NCc1ccnc(-c2c(C)noc2C)c1 [Example 186, (E)-1′-(3-(4-chlorophenyl)allyl)-5-(3,5-dimethylisoxazol-4-yl)-N-((2-(3,5-dimethylisoxazol-4-yl)pyridin-4-yl)methyl)spiro[indoline-3,4′-piperidine]-1-carboxamide]	3.3	1360	100				
Cc1noc(C)c1-c1ccc2c(c1)C1(CCN(C/C=C/c3ccc(Cl)cc3)CC1)CN2C(=O)NCc1ccnc(Cl)c1 [Example 187, (E)-1′-(3-(4-chlorophenyl)allyl)-N-((2-chloropyridin-4-yl)methyl)-5-(3,5-dimethylisoxazol-4-yl)spiro[indoline-3,4′-piperidine]-1-carboxamide]		2470		3.3	100		
O=C(NCc1cnc(Cl)s1)N1CC2(CCN(C/C=C/c3ccc(Cl)cc3)CC2)c2cc(OC(F)(F)F)ccc21 [Example 189, (E)-1′-(3-(4-chlorophenyl)allyl)-N-((2-chlorothiazol-5-yl)methyl)-5-(trifluoromethoxy)spiro[indoline-3,4′-piperidine]-1-carboxamide]		792		14	100		
